Laboratory results published in PubChem BioAssay AID1963427 (Molecular Pharmacology Branch, DTP, NCI, 2024).
pIC50: −log10 of the molar value. Where “and” joins values, the source holds several entries; their conditions need not be identical. Equal values may be shown once.

Test system: 317291-083-R-J1-PDC complex spheroid growth
Test: Anticancer human tumor 317291-083-R-J1-PDC patient-derived soft tissue sarcoma cell line growth inhibition [Asc]
Conditions: for viability, T/C: stronger effect = lower value; active = viability on the fitted dose curve at most 10% of control; inactive = the rest
Method in brief: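 Spheroid model: tumor line + HUVEC + hMSC. Single agents and combinations; top conc. at/near clinical Cmax (10 microM if undetermined), half-log dilutions. DMSO stocks at 800-fold test concentration.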

[1] = curve of first compound, second compound 0.0316 µM
[2] = curve of first compound, second compound 0.1 µM
[3] = curve of first compound, second compound 0.316 µM
[4] = curve of first compound, second compound 1 µM
[5] = second compound 0.0316 µM, first compound 0.00316 µM
[6] = second compound 0.0316 µM, first compound 0.01 µM
[7] = second compound 0.0316 µM, first compound 0.0316 µM
[8] = second compound 0.0316 µM, first compound 0.1 µM
[9] = second compound 0.0316 µM, first compound 0.316 µM
[10] = second compound 0.0316 µM, first compound 1 µM
[11] = second compound 0.1 µM, first compound 0.00316 µM
[12] = second compound 0.1 µM, first compound 0.01 µM
[13] = second compound 0.1 µM, first compound 0.0316 µM
[14] = second compound 0.1 µM, first compound 0.1 µM
[15] = second compound 0.1 µM, first compound 0.316 µM
[16] = second compound 0.1 µM, first compound 1 µM
[17] = second compound 0.316 µM, first compound 0.00316 µM
[18] = second compound 0.316 µM, first compound 0.01 µM
[19] = second compound 0.316 µM, first compound 0.0316 µM
[20] = second compound 0.316 µM, first compound 0.1 µM
[21] = second compound 0.316 µM, first compound 0.316 µM
[22] = second compound 0.316 µM, first compound 1 µM
[23] = second compound 1 µM, first compound 0.00316 µM
[24] = second compound 1 µM, first compound 0.01 µM
[25] = second compound 1 µM, first compound 0.0316 µM
[26] = second compound 1 µM, first compound 0.1 µM
[27] = second compound 1 µM, first compound 0.316 µM
[28] = second compound 1 µM, first compound 1 µM
[29] = curve of first compound, second compound 3.16 µM
[30] = curve of first compound, second compound 10 µM
[31] = second compound 3.16 µM, first compound 0.0316 µM
[32] = second compound 3.16 µM, first compound 0.1 µM
[33] = second compound 3.16 µM, first compound 0.316 µM
[34] = second compound 3.16 µM, first compound 1 µM
[35] = second compound 10 µM, first compound 0.0316 µM
[36] = second compound 10 µM, first compound 0.1 µM
[37] = second compound 10 µM, first compound 0.316 µM
[38] = second compound 10 µM, first compound 1 µM
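Also: compound exposure lasted seven days after spheroids formed for three days.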
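For viability, T/C in this document: 100% = DMSO vehicle control wells.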

CCN1CCN(Cc2ccc(Nc3ncc(F)c(-c4cc(F)c5nc(C)n(C(C)C)c5c4)n3)nc2)CC1 + CNC(C)C(=O)NC1CN(S(=O)(=O)c2cccc(S(=O)(=O)N3CCC4CCC(C(=O)NC(c5ccccc5)c5ccccc5)N4C(=O)C(NC(=O)C(C)NC)C3)c2)CCC2CCC(C(=O)NC(c3ccccc3)c3ccccc3)N2C1=O
6.85: pIC50 [1]
6.46: pIC50 (curve of first compound, second compound 0.00316 µM)
7.74: pIC50 [3]
7.15: pIC50 [2]
> 8.50: pIC50 [4]
inactive: viability, T/C (second compound 0.00316 µM, first compound 0.00316 µM) 54.7% | viability, T/C (second compound 0.00316 µM, first compound 0.01 µM) 58.7% | viability, T/C (second compound 0.00316 µM, first compound 0.0316 µM) 56.8% | viability, T/C (second compound 0.00316 µM, first compound 0.1 µM) 65% | viability, T/C (second compound 0.00316 µM, first compound 0.316 µM) 48.9% | viability, T/C (second compound 0.00316 µM, first compound 1 µM) 28% | viability, T/C (second compound 0.01 µM, first compound 0.00316 µM) 89.1% | viability, T/C (second compound 0.01 µM, first compound 0.01 µM) 90% | viability, T/C (second compound 0.01 µM, first compound 0.0316 µM) 79.2% | viability, T/C (second compound 0.01 µM, first compound 0.1 µM) 76% | viability, T/C (second compound 0.01 µM, first compound 0.316 µM) 48.8% | viability, T/C (second compound 0.01 µM, first compound 1 µM) 31.6% | viability, T/C [5] 80.3% | viability, T/C [6] 79.6% | viability, T/C [7] 64.9% | viability, T/C [8] 58.4% | viability, T/C [9] 35.7% | viability, T/C [10] 40.9% | viability, T/C [11] 60.9% | viability, T/C [12] 50.2% | viability, T/C [13] 53.8% | viability, T/C [14] 45.6% | viability, T/C [15] 43.5% | viability, T/C [16] 22.2% | viability, T/C [17] 58.6% | viability, T/C [18] 49.4% | viability, T/C [19] 42.8% | viability, T/C [20] 48% | viability, T/C [21] 33.4% | viability, T/C [22] 22.7% | viability, T/C [23] 32.9% | viability, T/C [24] 36.6% | viability, T/C [25] 36.6% | viability, T/C [26] 31.4% | viability, T/C [27] 32.2% | viability, T/C [28] 19.5%
6.49: pIC50 (curve of first compound, second compound 0.01 µM)

O=C(c1cc(Cc2n[nH]c(=O)c3ccccc23)ccc1F)N1CCN(C(=O)C2CC2)CC1 + Cc1c(S(C)(=O)=O)c(-c2cc(F)cc(N3CCN(c4ccc(NS(=O)(=O)c5ccc(NC(CCN6CCC(C(=O)OCCCP(=O)(O)O)CC6)CSc6ccccc6)c(S(=O)(=O)C(F)(F)F)c5)cc4)CC3)c2)c(-c2ccc(Cl)cc2)n1C(C)C
5.08: pIC50 [2]
5.29: pIC50 [29]
5.16: pIC50 [1]
5.36: pIC50 [4]
inactive: viability, T/C [7] 84.8% | viability, T/C [8] 72.5% | viability, T/C [9] 88% | viability, T/C [10] 75.9% | viability, T/C (second compound 0.0316 µM, first compound 3.16 µM) 68.2% | viability, T/C (second compound 0.0316 µM, first compound 10 µM) 41.5% | viability, T/C [13] 90% | viability, T/C [14] 87.3% | viability, T/C [15] 79.1% | viability, T/C [16] 84% | viability, T/C (second compound 0.1 µM, first compound 3.16 µM) 70% | viability, T/C (second compound 0.1 µM, first compound 10 µM) 45.9% | viability, T/C [19] 82.8% | viability, T/C [20] 80.5% | viability, T/C [21] 90.2% | viability, T/C [22] 75.7% | viability, T/C (second compound 0.316 µM, first compound 3.16 µM) 61.8% | viability, T/C (second compound 0.316 µM, first compound 10 µM) 35.3% | viability, T/C [25] 73.7% | viability, T/C [26] 98.6% | viability, T/C [27] 69.1% | viability, T/C [28] 63.7% | viability, T/C (second compound 1 µM, first compound 3.16 µM) 64.7% | viability, T/C (second compound 1 µM, first compound 10 µM) 27.9% | viability, T/C [31] 75.7% | viability, T/C [32] 62.6% | viability, T/C [33] 61.8% | viability, T/C [34] 54.1% | viability, T/C (second compound 3.16 µM, first compound 3.16 µM) 67.6% | viability, T/C (second compound 3.16 µM, first compound 10 µM) 30.8% | viability, T/C [35] 90.6% | viability, T/C [36] 83.4% | viability, T/C [37] 95.8% | viability, T/C [38] 83.2% | viability, T/C (second compound 10 µM, first compound 3.16 µM) 69.1% | viability, T/C (second compound 10 µM, first compound 10 µM) 28.9%
5.28: pIC50 [3]
5.26: pIC50 [30]

CNC(C)C(=O)NC1CN(S(=O)(=O)c2cccc(S(=O)(=O)N3CCC4CCC(C(=O)NC(c5ccccc5)c5ccccc5)N4C(=O)C(NC(=O)C(C)NC)C3)c2)CCC2CCC(C(=O)NC(c3ccccc3)c3ccccc3)N2C1=O (stereo not drawn)
6.60 and 6.38: pIC50 (curve of compound)
inactive: viability, T/C (compound 0.0316 µM) 72.8% [middle of 9 runs]

CCN1CCN(Cc2ccc(Nc3ncc(F)c(-c4cc(F)c5nc(C)n(C(C)C)c5c4)n3)nc2)CC1 + Cc1c(S(C)(=O)=O)c(-c2cc(F)cc(N3CCN(c4ccc(NS(=O)(=O)c5ccc(NC(CCN6CCC(C(=O)OCCCP(=O)(O)O)CC6)CSc6ccccc6)c(S(=O)(=O)C(F)(F)F)c5)cc4)CC3)c2)c(-c2ccc(Cl)cc2)n1C(C)C
6.62: pIC50 [29]
6.43: pIC50 [4] | pIC50 [30]
6.40: pIC50 [3]
6.19: pIC50 [2]
inactive: viability, T/C [5] 97.4% | viability, T/C [6] 105% | viability, T/C [7] 87% | viability, T/C [8] 87.2% | viability, T/C [9] 70% | viability, T/C [10] 46.8% | viability, T/C [11] 113% | viability, T/C [12] 85.7% | viability, T/C [13] 90.4% | viability, T/C [14] 74% | viability, T/C [15] 63.6% | viability, T/C [16] 41% | viability, T/C [17] 94.1% | viability, T/C [18] 80.5% | viability, T/C [19] 77.8% | viability, T/C [20] 62.1% | viability, T/C [21] 66.6% | viability, T/C [22] 26.7% | viability, T/C [23] 87.2% | viability, T/C [24] 88% | viability, T/C [25] 67.8% | viability, T/C [26] 88.2% | viability, T/C [27] 54% | viability, T/C [28] 25.9% | viability, T/C (second compound 3.16 µM, first compound 0.00316 µM) 75.8% | viability, T/C (second compound 3.16 µM, first compound 0.01 µM) 80.5% | viability, T/C [31] 73.5% | viability, T/C [32] 63.7% | viability, T/C [33] 46% | viability, T/C [34] 24.9% | viability, T/C (second compound 10 µM, first compound 0.00316 µM) 82.7% | viability, T/C (second compound 10 µM, first compound 0.01 µM) 90.5% | viability, T/C [35] 96.3% | viability, T/C [36] 78.7% | viability, T/C [37] 54.6% | viability, T/C [38] 25.7%
6.06: pIC50 [1]
